These results are taken from PubChem BioAssay (NCI).

Structures are written as SMILES.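 Dose response: 5 concentrations. Exposure: 48 h. Format: 96-well plates. Endpoint: linear interpolation; highest concentration if not reached. At the GI50, growth is halved. TGI: concentration producing complete growth inhibition.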

Test systems include EKVX NSCLC; HCT-15 colon; OVCAR-3 ovarian; A549 NSCLC; RPMI-8226 leukemia; SK-MEL-2 melanoma; NCI-H226 lung; SF-295 CNS; A498 renal; TK-10 renal.
Common to all, as to assay: growth of human tumour cells (NCI), 48 h

As to `CC1CCC(n2c3cnccc3c3cnc(Nc4ccc5c(n4)CCN(C(=O)CO)C5)nc32)CC1` (stereo not drawn), the GI50 was greater than 100 µM in the assay with EKVX NSCLC; 0.418 µM in the assay with HCT-15 colon; greater than 100 µM with OVCAR-3 ovarian; 0.882 µM in the assay with A549 NSCLC; 1.43 µM in the assay on RPMI-8226 leukemia; greater than 100 µM in the assay with SK-MEL-2 melanoma. Further, the TGI in the assay with EKVX NSCLC, in the assay on HCT-15 colon, with OVCAR-3 ovarian, in the assay on A549 NSCLC, in the assay with RPMI-8226 leukemia and with SK-MEL-2 melanoma was greater than 100 µM in each case.
Turning to `COc1ccc2c(c1)/C(=C/CCN(C)C)c1ccccc1S2`, the TGI with NCI-H226 lung, in the assay on HCT-15 colon, in the assay with OVCAR-3 ovarian, with A549 NSCLC, in the assay with SF-295 CNS and in the assay with A498 renal was greater than 100 µM throughout. Besides, the TGI with TK-10 renal is greater than 100 µM.
Consider `CC(C)CCS(=O)(=O)OCCCCOS(=O)(=O)CCC(C)C`, for which the TGI is greater than 100 µM in the assay with NCI-H226 lung; greater than 100 µM in the assay with EKVX NSCLC; greater than 100 µM in the assay on HCT-15 colon; 29.9 µM with OVCAR-3 ovarian; greater than 100 µM in the assay with A549 NSCLC; greater than 100 µM with SF-295 CNS. Further, the TGI in the assay on RPMI-8226 leukemia and with TK-10 renal was greater than 100 µM each time.
With `CCOC(=O)C1(C/C=C/CBr)Cc2ccccc2C1=O` (stereo not drawn), the TGI was 28.7 µM in the assay with EKVX NSCLC; 5.73 µM in the assay on HCT-15 colon; 4.54 µM with OVCAR-3 ovarian; greater than 35.7 µM in the assay on A549 NSCLC; 22.1 µM in the assay with SF-295 CNS; 4.88 µM in the assay with RPMI-8226 leukemia. Moreover, the TGI in the assay on SK-MEL-2 melanoma was 6.13 µM; in the assay on A498 renal it was 32.6 µM; with TK-10 renal, 9.15 µM.
With `Cc1cn2c(/C=N/N=C(N)N)c(-c3cccc([N+](=O)[O-])c3)nc2s1`, the TGI is 5.39 µM with EKVX NSCLC; 19.6 µM in the assay with HCT-15 colon; 2.51 µM in the assay with OVCAR-3 ovarian; 4.94 µM with A549 NSCLC; 3.3 µM with SF-295 CNS; greater than 100 µM in the assay on RPMI-8226 leukemia. Besides, the TGI in the assay on TK-10 renal was found to be 3.92 µM.
Consider `COc1cccc(C(=O)O[C@H]2[C@@H]3[C@]4(OC(C)=O)CO[C@@H]4C[C@H](O)[C@@]3(C)C(=O)[C@H](OC(C)=O)C3=C(C)[C@@H](OC(=O)[C@H](O)[C@@H](NC(=O)OC(C)(C)C)c4ccco4)C[C@]2(O)C3(C)C)c1`, for which the TGI is greater than 15.2 µM with NCI-H226 lung; greater than 28.9 µM in the assay with EKVX NSCLC; greater than 16.4 µM in the assay on HCT-15 colon; less than 0.00375 µM in the assay with OVCAR-3 ovarian; greater than 37.5 µM in the assay with A549 NSCLC; 0.151 µM in the assay on SF-295 CNS. Further, the TGI in the assay on SK-MEL-2 melanoma was 16.9 µM; in the assay with TK-10 renal it was 27.4 µM.
On to `[N-]=[N+]=NC[C@H]1OCO[C@H](CN=[N+]=[N-])[C@@H](OCCOCCCl)[C@@H]1OCCOCCCl`, for which the TGI with NCI-H226 lung, with EKVX NSCLC, with HCT-15 colon, in the assay on OVCAR-3 ovarian, in the assay on A549 NSCLC and in the assay on SF-295 CNS was greater than 100 µM in each case. For the same compound, the TGI in the assay on RPMI-8226 leukemia, with SK-MEL-2 melanoma and in the assay on TK-10 renal was greater than 100 µM in each case.
Turning to `O=C1CSC(c2ccc(Cl)cc2)N1c1ccc(Oc2ccc(Cl)cc2)c(Cl)c1` (stereo not drawn), the TGI with NCI-H226 lung came to 36.5 µM; in the assay on EKVX NSCLC, 27.2 µM; in the assay on HCT-15 colon, 29.5 µM; with OVCAR-3 ovarian it was 29 µM; in the assay on A549 NSCLC it was 34.5 µM; with SF-295 CNS it was 30.8 µM. Further, the values for the TGI in the assay on RPMI-8226 leukemia, with SK-MEL-2 melanoma and in the assay on TK-10 renal were 63.8 µM, 33.9 µM and 33.2 µM, respectively.
With `COc1cc(C2c3cc4c(cc3OC(N3CCOCC3)C2C)OCO4)ccc1O` (stereo not drawn), the TGI was greater than 100 µM in the assay on EKVX NSCLC; greater than 100 µM with HCT-15 colon; 45.1 µM in the assay on OVCAR-3 ovarian; greater than 100 µM in the assay with A549 NSCLC; 38.2 µM in the assay with SF-295 CNS; 19.9 µM with RPMI-8226 leukemia. Besides, the TGI with SK-MEL-2 melanoma was 33.6 µM; in the assay with A498 renal it was 51.4 µM; in the assay with TK-10 renal it was greater than 100 µM.
`CN1C(=O)C2CCC(=O)N2c2cccnc21` (stereo not drawn): the TGI in the assay with NCI-H226 lung, in the assay with EKVX NSCLC, in the assay with HCT-15 colon, in the assay with OVCAR-3 ovarian, in the assay with A549 NSCLC and in the assay with SF-295 CNS was greater than 100 µM throughout. The TGI in the assay on RPMI-8226 leukemia, in the assay on SK-MEL-2 melanoma and in the assay on TK-10 renal was greater than 100 µM throughout.
As for `CCOC(=O)c1csc(NC(=O)CN2CCOCC2)n1`, the TGI in the assay with EKVX NSCLC, in the assay on HCT-15 colon, in the assay on OVCAR-3 ovarian, in the assay with A549 NSCLC, in the assay on SF-295 CNS and in the assay on RPMI-8226 leukemia was greater than 100 µM throughout. Besides, the TGI in the assay on SK-MEL-2 melanoma, in the assay with A498 renal and with TK-10 renal was greater than 100 µM throughout.
On to `Nc1nc(SCCc2ccccc2)c2[nH]cnc2n1`, for which the TGI in the assay with NCI-H226 lung is greater than 100 µM; with EKVX NSCLC, 78.8 µM; in the assay on HCT-15 colon, greater than 100 µM; in the assay with OVCAR-3 ovarian, greater than 100 µM; in the assay with A549 NSCLC, greater than 100 µM; with SF-295 CNS it was greater than 100 µM. Also, the TGI was determined as 82.9 µM in the assay on SK-MEL-2 melanoma, 61 µM in the assay with A498 renal and 67.9 µM in the assay with TK-10 renal.
With `O=[N+]([O-])c1ccc2c(c1)c(OCc1ccccc1)nn2Cc1ccccc1`, the TGI with NCI-H226 lung, in the assay with HCT-15 colon, in the assay on OVCAR-3 ovarian, in the assay on A549 NSCLC, in the assay on SF-295 CNS and in the assay on RPMI-8226 leukemia was greater than 100 µM each time. The TGI in the assay on SK-MEL-2 melanoma, in the assay with A498 renal and in the assay with TK-10 renal was greater than 100 µM throughout.
Take `Cc1ccc(C(=O)O)cc1S(=O)(=O)Nn1cnc2ccc(S(=O)(=O)Nc3ccccc3C(=O)O)cc2c1=O`: the TGI in the assay with NCI-H226 lung, in the assay on EKVX NSCLC, in the assay with HCT-15 colon, in the assay on OVCAR-3 ovarian, in the assay on A549 NSCLC and in the assay on SF-295 CNS was greater than 100 µM in each case. Also, the TGI with RPMI-8226 leukemia, in the assay with SK-MEL-2 melanoma and with TK-10 renal was greater than 100 µM each time.
